According to ChEMBL document CHEMBL5113384, “Small-molecule inhibitors targeting small ubiquitin-like modifier pathway for the treatment of cancers and other diseases” (Eur J Med Chem, 2022):
Blank lines part the entries; values can stand above or below the molecule they belong to.

Tests used:
[1] = Inhibition of His-tagged SUMO1/SUMO E1 /GST-tagged Aos1/Uba2/His-tagged Ubc9 (unknown origin)-mediated recombinant His/T7-tagged RanGAP1-C-terminal fragment SUMOylation assessed as change in chemical shift perturbation by 1H,15N HSQC NMR spectroscopy analysis; design: species or system Homo sapiens
[2] = Inhibition of His-tagged SUMO1/SUMO E1 /His-tagged Ubc9 (unknown origin)-mediated SUMOylation using FL-AR as substrate incubated for 90 mins in presence of ATP by Western blot analysis; design: species or system Homo sapiens
[3] = (§1) Inhibition of His-tagged SUMO1/GST-tagged Aos1/Uba2/His-tagged Ubc9 (unknown origin)-mediated recombinant His/T7-tagged RanGAP1-C-terminal fragment SUMOylation expressed in Escherichia coli BL21 (DE3) assessed as reduction in Ubc9-SUMO level in presence of ATP by SDS-PAGE based immunoblotting analysis; design: species or system Homo sapiens
[4] = Inhibition of His-tagged SUMO/SAE /Ubc9 (unknown origin)-mediated recombinant 6His-tagged RanGAP1 SUMOylation in presence of ATP by HTRF analysis; design: species or system Homo sapiens
[5] = Inhibition of SUMO E1 (unknown origin); design: species or system Homo sapiens
[6] = Inhibition of Plasmodium falciparum SENP1 using QTGG-AFC as substrate by fluorescence based analysis
[7] = Inhibition of His-tagged SUMO1/SUMO E1 /GST-tagged Aos1/Uba2/His-tagged Ubc9 (unknown origin)-mediated recombinant His/T7-tagged RanGAP1-C2-terminal fragment SUMOylation in presence of ATP by SDS-PAGE based immunoblotting analysis; design: species or system Homo sapiens
[8] = as §1, with “SUMO1/SUMO E1 /GST-tagged” for “SUMO1/GST-tagged”, “level measured upto 2 hrs” for “level”, “fluorescence polarization” for “SDS-PAGE based immunoblotting”; design: species or system Homo sapiens
[9] = Inhibition of UAE (unknown origin); design: species or system Homo sapiens
[10] = molecular target: T1, NEDD8 activating enzyme (Homo sapiens, UniProt Q8TBC4); test: Inhibition of NAE (unknown origin); assay type: protein-complex assay
T1 sequence (Q8TBC4 whole entry): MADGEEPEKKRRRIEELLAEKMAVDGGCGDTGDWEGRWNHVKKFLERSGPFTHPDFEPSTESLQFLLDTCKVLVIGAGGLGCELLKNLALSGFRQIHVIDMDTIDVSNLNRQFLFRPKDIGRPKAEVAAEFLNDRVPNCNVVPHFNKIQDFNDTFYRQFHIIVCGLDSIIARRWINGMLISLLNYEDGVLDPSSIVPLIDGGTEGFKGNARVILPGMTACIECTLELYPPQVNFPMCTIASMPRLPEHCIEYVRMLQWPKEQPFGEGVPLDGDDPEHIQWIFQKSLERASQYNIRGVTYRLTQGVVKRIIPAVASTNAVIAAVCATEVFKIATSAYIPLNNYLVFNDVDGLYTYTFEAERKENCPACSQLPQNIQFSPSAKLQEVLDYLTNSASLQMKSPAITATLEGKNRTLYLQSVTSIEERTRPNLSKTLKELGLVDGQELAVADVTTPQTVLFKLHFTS
T1 sequence (Q13564 whole entry): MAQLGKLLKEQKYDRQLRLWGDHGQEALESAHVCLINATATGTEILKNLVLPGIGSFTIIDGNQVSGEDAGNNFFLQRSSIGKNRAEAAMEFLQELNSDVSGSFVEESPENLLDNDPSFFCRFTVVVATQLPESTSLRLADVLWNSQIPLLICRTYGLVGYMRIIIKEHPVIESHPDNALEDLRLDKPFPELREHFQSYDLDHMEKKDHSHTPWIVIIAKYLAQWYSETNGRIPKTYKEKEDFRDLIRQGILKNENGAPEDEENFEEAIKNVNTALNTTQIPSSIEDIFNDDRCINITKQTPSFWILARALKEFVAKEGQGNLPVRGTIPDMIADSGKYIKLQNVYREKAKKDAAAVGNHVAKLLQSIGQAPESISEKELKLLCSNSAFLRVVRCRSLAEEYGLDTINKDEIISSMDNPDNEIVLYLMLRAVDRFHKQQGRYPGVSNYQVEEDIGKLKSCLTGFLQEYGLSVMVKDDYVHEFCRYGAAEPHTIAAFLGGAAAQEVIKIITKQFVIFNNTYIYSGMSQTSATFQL

[11] = Inhibition of His-tagged SUMO1/SUMO E1 /His-tagged Ubc9 (unknown origin)-mediated […] SUMOylation using FL-AR as substrate incubated for 90 mins in presence of ATP by peptide microarray-based fluorescence assay; design: species or system Homo sapiens
[12] = system: LNCaP; test: Antiproliferative activity against androgen-sensitive human LNCaP cells assessed as cell growth inhibition incubated for 48 hrs by MTT assay; assay type: functional, cell-based
[13] = system: PC-3; test: Antiproliferative activity against human PC-3 cells assessed as cell growth inhibition incubated for 48 hrs by MTT assay; assay type: functional, cell-based; settings: PC-3, 48 h

Structure (SMILES): Oc1ccccc1-c1ccccc1O
IC50 [1]: 5800 µM

Structure (SMILES): C[C@@H]1O[C@@H](O[C@@H]2C[C@H](c3ccc4c(c3O)C(=O)C3=C(C4=O)[C@@]4(O[C@H]5CC[C@H](O)[C@H](C)O5)C(=O)C[C@](C)(O)C[C@@]4(O)C=C3)O[C@H](C)[C@H]2O)CC[C@@H]1O[C@H]1C[C@@H](O)[C@H](O)[C@@H](C)O1
IC50 [3]: 11.7 µM

Structure (SMILES): COC(=O)C1=C(C(=O)OC)[C@@]2([C@@H](Cc3ccc(C)cc3)Nc3ccccc3)C=C[C@@H]1O2
IC50 [4]: 0.2 µM

Structure (SMILES): NS(=O)(=O)OC[C@@H]1C[C@@H](n2ccc3c(NC4CCc5ccccc54)ncnc32)C[C@@H]1O (stereo partly drawn)
IC50 [5]: 8.2 µM

Structure (SMILES): O=C(O)CN(NC(=O)c1ccc(CNC(=O)c2cccc(C(=O)O)c2)cc1)C(=O)[C@H]1O[C@@H]1C(=O)C(Cc1cccc2ccccc12)Cc1cccc2ccccc12
IC50 [6]: 17.9 µM

Structure (SMILES): CO/C(=C/C(=O)O)[C@H]1c2cc3ccc(-c4ccc5cc6c(c(O)c5c4O)C(=O)C[C@@](C)(O)[C@H]6/C(=C\C(=O)O)OC)c(O)c3c(O)c2C(=O)C[C@@]1(C)O
IC50 [7]: 4.4 µM

Structure (SMILES): O=C(O)c1cccc(C(=O)NCc2ccc(C(=O)NNC(=O)[C@H]3O[C@@H]3C(=O)C(Cc3cccc4ccccc34)Cc3cccc4ccccc34)cc2)c1
IC50 [6]: 16.2 µM

Structure (SMILES): c1coc(-c2cc(CNc3ncnc4sc5cnccc5c34)no2)c1
IC50 [11]: 74 µM

Structure (SMILES): CC(C)[C@]12O[C@H]1[C@@H]1O[C@]13[C@]1(O[C@H]1C[C@H]1C4=C(CC[C@@]13C)C(=O)OC4)[C@@H]2O [TRIPTOLIDE]
IC50 [12]: 0.0097 µM
IC50 [13]: 0.0203 µM

Now from value to molecule:

IC50 [2]: 6 µM
Structure (SMILES): O=c1cc(-c2ccc(O)c(O)c2O)oc2ccccc12

IC50 [1]: 3000 µM
Structure (SMILES): CCOC(=O)CCc1ccc(-c2ccccc2O)c(O)c1

IC50 [8]: 12.5 µM
Structure (SMILES): COc1ccc(NC(=O)[C@H](CCCN)Nc2cc(C)nc(NCCc3cccs3)n2)cc1

IC50 [5]: 0.003 µM
IC50 [9]: > 100 µM
IC50 [10]: 32 µM
Structure (SMILES): NS(=O)(=O)OC[C@@H]1C[C@@H](Nc2ncncc2C(=O)c2ccn(Cc3cccc(Br)c3)n2)C[C@@H]1O

IC50 [3]: 2.2 µM
Structure (SMILES): CCCCCCCCCCCCCCCc1cccc(O)c1C(=O)O [ANACARDIC ACID]

IC50 [3]: 3 µM
Structure (SMILES): CCCCCC/C=C\CCCCCCCc1cccc(O)c1C(=O)O [GINGKOLIC ACID]
